Results from PubChem BioAssay AID1963959 (Molecular Pharmacology Branch, DTP, NCI, 2024).

Test system: T-47D spheroids with HUVEC/MSC, viability
Assay: Anticancer human tumor T-47D cell line growth inhibition [PI3K];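 note: spheroids exposed to agents for seven days before reading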;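 for viability, T/C: percent of DMSO vehicle control luminescence so 100% = untreated growth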
Details: for IC50: curve of first compound; for viability, T/C: stronger effect = lower value
Method in brief: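 Multi-cell spheroids combine tumor cells with HUVEC and human MSCs, treated with targeted agents alone or with inavolisib, alpelisib, duvelisib or copanlisib. Concentrations fall in half-log steps from at or near clinical Cmax, or from 10 microM where Cmax is unknown; viability read-out.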

[1] = second compound 0.0316 µM, first compound 0.0316 µM
[2] = second compound 0.0316 µM, first compound 0.1 µM
[3] = second compound 0.0316 µM, first compound 0.316 µM
[4] = second compound 0.0316 µM, first compound 1 µM
[5] = second compound 0.0316 µM, first compound 3.16 µM
[6] = second compound 0.0316 µM, first compound 10 µM
[7] = second compound 0.1 µM, first compound 0.0316 µM
[8] = second compound 0.1 µM, first compound 0.1 µM
[9] = second compound 0.1 µM, first compound 0.316 µM
[10] = second compound 0.1 µM, first compound 1 µM
[11] = second compound 0.1 µM, first compound 3.16 µM
[12] = second compound 0.1 µM, first compound 10 µM
[13] = second compound 0.316 µM, first compound 0.0316 µM
[14] = second compound 0.316 µM, first compound 0.1 µM
[15] = second compound 0.316 µM, first compound 0.316 µM
[16] = second compound 0.316 µM, first compound 1 µM
[17] = second compound 0.316 µM, first compound 3.16 µM
[18] = second compound 0.316 µM, first compound 10 µM
[19] = second compound 1 µM, first compound 0.0316 µM
[20] = second compound 1 µM, first compound 0.1 µM
[21] = second compound 1 µM, first compound 0.316 µM
[22] = second compound 1 µM, first compound 1 µM
[23] = second compound 1 µM, first compound 3.16 µM
[24] = second compound 1 µM, first compound 10 µM
[25] = second compound 3.16 µM, first compound 0.0316 µM
[26] = second compound 3.16 µM, first compound 0.1 µM
[27] = second compound 3.16 µM, first compound 0.316 µM
[28] = second compound 3.16 µM, first compound 1 µM
[29] = second compound 3.16 µM, first compound 3.16 µM
[30] = second compound 3.16 µM, first compound 10 µM
[31] = second compound 10 µM, first compound 0.0316 µM
[32] = second compound 10 µM, first compound 0.1 µM
[33] = second compound 10 µM, first compound 0.316 µM
[34] = second compound 10 µM, first compound 1 µM
[35] = second compound 10 µM, first compound 3.16 µM
[36] = second compound 10 µM, first compound 10 µM

Compound: C=CC(=O)N1CCN(c2nc(=O)n(-c3c(C)ccnc3C(C)C)c3nc(-c4c(O)cccc4F)c(F)cc23)C(C)C1 (stereo unspecified) + Cc1nc(NC(=O)N2CCCC2C(N)=O)sc1-c1ccnc(C(C)(C)C(F)(F)F)c1
- IC50 (second compound 0.0316 µM): > 10 µM
- IC50 (second compound 0.1 µM): > 10 µM
- IC50 (second compound 0.316 µM): > 10 µM
- IC50 (second compound 1 µM): > 10 µM
- IC50 (second compound 3.16 µM): > 10 µM
- IC50 (second compound 10 µM): < 0.0316 µM
- viability, T/C [1]: 112%
- viability, T/C [2]: 92.4%
- viability, T/C [3]: 102%
- viability, T/C [4]: 84.8%
- viability, T/C [5]: 88.8%
- viability, T/C [6]: 98.5%
- viability, T/C [7]: 105%
- viability, T/C [8]: 89.7%
- viability, T/C [9]: 97.2%
- viability, T/C [10]: 77.8%
- viability, T/C [11]: 116%
- viability, T/C [12]: 106%
- viability, T/C [13]: 83.8%
- viability, T/C [14]: 96%
- viability, T/C [15]: 86.7%
- viability, T/C [16]: 99%
- viability, T/C [17]: 91.5%
- viability, T/C [18]: 99.4%
- viability, T/C [19]: 96.1%
- viability, T/C [20]: 98%
- viability, T/C [21]: 84.1%
- viability, T/C [22]: 100%
- viability, T/C [23]: 99.4%
- viability, T/C [24]: 101%
- viability, T/C [25]: 65.1%
- viability, T/C [26]: 77.5%
- viability, T/C [27]: 77.9%
- viability, T/C [28]: 75.9%
- viability, T/C [29]: 85.4%
- viability, T/C [30]: 95.3%
- viability, T/C [31]: 37%
- viability, T/C [32]: 36.7%
- viability, T/C [33]: 41.2%
- viability, T/C [34]: 45%
- viability, T/C [35]: 53%
- viability, T/C [36]: 59.5%

Compound: Cn1nccc1Nc1nccc(-c2ccn(C(CO)c3ccc(Cl)c(F)c3)c(=O)c2)n1 (stereo unspecified) + Cc1nc(NC(=O)N2CCCC2C(N)=O)sc1-c1ccnc(C(C)(C)C(F)(F)F)c1
- IC50 (second compound 0.0316 µM): > 10 µM
- IC50 (second compound 0.1 µM): > 10 µM
- IC50 (second compound 0.316 µM): > 10 µM
- IC50 (second compound 1 µM): > 10 µM
- IC50 (second compound 3.16 µM): > 10 µM
- IC50 (second compound 10 µM): < 0.0316 µM
- viability, T/C [1]: 99.1%
- viability, T/C [2]: 81.6%
- viability, T/C [3]: 92.6%
- viability, T/C [4]: 102%
- viability, T/C [5]: 103%
- viability, T/C [6]: 96.3%
- viability, T/C [7]: 111%
- viability, T/C [8]: 95.2%
- viability, T/C [9]: 98.8%
- viability, T/C [10]: 89.4%
- viability, T/C [11]: 117%
- viability, T/C [12]: 85.7%
- viability, T/C [13]: 86.8%
- viability, T/C [14]: 93.3%
- viability, T/C [15]: 97.6%
- viability, T/C [16]: 101%
- viability, T/C [17]: 104%
- viability, T/C [18]: 92.4%
- viability, T/C [19]: 85.4%
- viability, T/C [20]: 92.7%
- viability, T/C [21]: 86.6%
- viability, T/C [22]: 88%
- viability, T/C [23]: 110%
- viability, T/C [24]: 82%
- viability, T/C [25]: 65.9%
- viability, T/C [26]: 70.8%
- viability, T/C [27]: 73.5%
- viability, T/C [28]: 83.3%
- viability, T/C [29]: 76.9%
- viability, T/C [30]: 70.8%
- viability, T/C [31]: 39.5%
- viability, T/C [32]: 39.9%
- viability, T/C [33]: 41.7%
- viability, T/C [34]: 42.9%
- viability, T/C [35]: 46.4%
- viability, T/C [36]: 48.7%

Compound: Cn1ncnc1[C@H]1c2n[nH]c(=O)c3cc(F)cc(c23)N[C@@H]1c1ccc(F)cc1 + Cc1nc(NC(=O)N2CCCC2C(N)=O)sc1-c1ccnc(C(C)(C)C(F)(F)F)c1
- IC50 (second compound 0.0316 µM): > 0.1 µM
- IC50 (second compound 0.1 µM): > 0.1 µM
- IC50 (second compound 0.316 µM): > 0.1 µM
- IC50 (second compound 1 µM): > 0.1 µM
- IC50 (second compound 3.16 µM): > 0.1 µM
- IC50 (second compound 10 µM): < 0.000316 µM
- viability, T/C (second compound 0.0316 µM, first compound 0.000316 µM): 105%
- viability, T/C (second compound 0.0316 µM, first compound 0.001 µM): 103%
- viability, T/C (second compound 0.0316 µM, first compound 0.00316 µM): 99%
- viability, T/C (second compound 0.0316 µM, first compound 0.01 µM): 99.9%
- viability, T/C [1]: 86.8%
- viability, T/C [2]: 98.8%
- viability, T/C (second compound 0.1 µM, first compound 0.000316 µM): 106%
- viability, T/C (second compound 0.1 µM, first compound 0.001 µM): 96.3%
- viability, T/C (second compound 0.1 µM, first compound 0.00316 µM): 95.5%
- viability, T/C (second compound 0.1 µM, first compound 0.01 µM): 106%
- viability, T/C [7]: 99.5%
- viability, T/C [8]: 86.7%
- viability, T/C (second compound 0.316 µM, first compound 0.000316 µM): 105%
- viability, T/C (second compound 0.316 µM, first compound 0.001 µM): 97.5%
- viability, T/C (second compound 0.316 µM, first compound 0.00316 µM): 105%
- viability, T/C (second compound 0.316 µM, first compound 0.01 µM): 87%
- viability, T/C [13]: 94.5%
- viability, T/C [14]: 86.5%
- viability, T/C (second compound 1 µM, first compound 0.000316 µM): 101%
- viability, T/C (second compound 1 µM, first compound 0.001 µM): 89.3%
- viability, T/C (second compound 1 µM, first compound 0.00316 µM): 85.1%
- viability, T/C (second compound 1 µM, first compound 0.01 µM): 89.4%
- viability, T/C [19]: 87.7%
- viability, T/C [20]: 90.5%
- viability, T/C (second compound 3.16 µM, first compound 0.000316 µM): 65.1%
- viability, T/C (second compound 3.16 µM, first compound 0.001 µM): 70.8%
- viability, T/C (second compound 3.16 µM, first compound 0.00316 µM): 63.4%
- viability, T/C (second compound 3.16 µM, first compound 0.01 µM): 63.6%
- viability, T/C [25]: 71.5%
- viability, T/C [26]: 69.2%
- viability, T/C (second compound 10 µM, first compound 0.000316 µM): 39%
- viability, T/C (second compound 10 µM, first compound 0.001 µM): 34.8%
- viability, T/C (second compound 10 µM, first compound 0.00316 µM): 36.8%
- viability, T/C (second compound 10 µM, first compound 0.01 µM): 34.1%
- viability, T/C [31]: 32.9%
- viability, T/C [32]: 38.9%
